Type in all cases: functional
Test [1] has as its system Pyricularia grisea. Description: Fungicidal activity against Magnaporthe grisea in rice plant assessed as prevention from rice blast disease measured as lesions under greenhouse at 12.5 ppm for 8 days by foliar spray compound treated before inoculation.
Test [2] concerns Pyricularia grisea. Description: Fungicidal activity against Magnaporthe grisea in rice plant assessed as prevention from rice blast disease measured as lesions under greenhouse at 50 ppm for 8 days by soil drench compound treated before inoculation.
Test [3] has as its system Pyricularia grisea. Description: Fungicidal activity against Magnaporthe grisea in rice plant assessed as prevention from rice blast disease measured as lesions under greenhouse at 3.1 ppm for 8 days by foliar spray compound treated before inoculation.
Test [4] relates to Pyricularia grisea. Description: Fungicidal activity against Magnaporthe grisea in rice plant assessed as prevention from rice blast disease measured as lesions under greenhouse at 12.5 ppm for 8 days by soil drench compound treated before inoculation.
Test [5] has as its system Pyricularia grisea. Description: Fungicidal activity against Magnaporthe grisea in rice plant assessed as rice blast disease measured as damage under greenhouse by foliar spray for 8 days compound treated before inoculation. Conditions: 192 h.
Test [6] deals with Pyricularia grisea. Description: Fungicidal activity against Magnaporthe grisea in rice plant assessed as rice blast disease measured as damage under greenhouse at 1.6 ppm for 8 days by foliar spray compound treated before inoculation.
The test system of test [7] is Pyricularia grisea. Description: Fungicidal activity against Magnaporthe grisea in rice plant assessed as rice blast disease measured as damage under greenhouse at 0.4 ppm for 8 days by foliar spray compound treated before inoculation.
Test [8] concerns Pyricularia grisea. Description: Fungicidal activity against Magnaporthe grisea in rice plant assessed as rice blast disease measured as damage under greenhouse at 6.3 ppm for 8 days by foliar spray compound treated before inoculation.
Test [9] concerns Pyricularia grisea. Description: Fungicidal activity against Magnaporthe grisea in rice plant assessed as rice blast disease measured as damage under greenhouse at 25 ppm for 8 days by foliar spray compound treated before inoculation.

The structures appear in SMILES notation. Values after ≈ are worked out from the molar mass of the structure shown.

As a reminder, the MIC is the lowest concentration that inhibits growth of the organism.

On to `C=CC(C)(C)C(C#N)C(=O)NC(C)c1ccc(Cl)cc1Cl` (configuration not stated), for which the Activity entry in test [1] and in [2] was “<=10%” throughout.

Consider `C#CC(C)(C)C(C#N)C(=O)NC(C)c1ccc(Cl)cc1` (configuration not stated), for which the Activity result in test [3] and in test [4] was “<=10%” each time.

For the molecule `C=CC(C)(C)C(C#N)C(=O)NC(C)c1ccc(Cl)cc1` (configuration not stated), the Activity result in [3] and in test [4] was “<=10%” in each case.

On to `CC(NC(=O)C(C#N)C(C)(C)C)c1ccc(Cl)cc1` (configuration not stated), for which the Activity entry in test [3] and in test [4] was “<=10%” throughout.

Turning to `C[C@@H](NC(=O)[C@@H](C#N)C(C)(C)C)c1ccc(Cl)cc1Cl`, the MIC in test [5] is 0.16 µg/mL (≈ 0.511 µM). Moreover, the Activity in test [6] came out at 2%; in test [7] it was 0%; in test [8] it was 3%; in [9] it was 4%.

On to `CC(NC(=O)C(C#N)C(C)(C)C)c1ccc(Br)cc1` (configuration not stated), for which the Activity entry in test [3] and in test [4] was “<=10%” in each case.

`C=CC(C)(C)C(C#N)C(=O)NC(C)c1ccc(Cl)cc1F` (configuration not stated): the Activity result in [3] and in test [4] was “<=10%” throughout.

(Values after ChEMBL document CHEMBL3045432, “Synthesis and Fungicidal Activity of -Cyanoacetamide Derivatives: Discovery of a New Rice Blast Fungicide, Diclocymet (S-2900)” (2002).)
